Data as given in patent US11396516B2, “Tricyclic compounds as Cyp1 inhibitors” (The General Hospital Corporation, priority 2017, dated 2022).
Like-named read-outs stand apart in the source and are kept apart here.

Tests used:
[1] = system: zebrafish embryos treated with DOX (cardiomyopathy phenotype); assay: Zebrafish doxorubicin cardiomyopathy model (rescue from phenotype); type: in vivo; conditions: for rescue from the doxorubicin cardiomyopathy phenotype: zebrafish co-treated with doxorubicin, inhibitors at 10 μM; for protection against doxorubicin cardiotoxicity in the zebrafish model: co-treatment with doxorubicin
Protocol: Zebrafish embryos at 30 hours post-fertilization were treated with DOX at 100 μM in 96-well plates as previously described (Liu et al., 2014). Tested compounds were dissolved in DMSO and added at concentrations ranging from 3 nM to 10 μM (n=6 fish per dose; <1% DMSO v/v). The cardiomyopathy phenotype (decreased cardiac contraction, pericardial edema, and decreased tail blood flow) was assessed under light microscopy (5× magnification) at 40 hours post-treatment (hpt). Percent rescue from the cardiomyopathy phenotype was calculated for each concentration tested. Zebrafish were considered to be rescued from DOX-induced cardiomyopathy if all three features of the phenotype were absent. For the tested compounds, each dose-response experiment was repeated three times.
Dose-response curves were constructed using Prism (GraphPad).
Zebrafish were treated with DOX and assessed for the development of the cardiomyopathy phenotype (decreased cardiac contraction, pericardial edema, and decreased tail blood flow). Zebrafish were considered to be rescued if all three features of the cardiomyopathy phenotype were absent upon co-treatment with a tested compound. Referring to FIGS. 3-9, data are depicted as mean+/−standard error (n=6 fish per dose; each experiment performed in triplicate).

[2] = system: zebrafish embryos; assay: Zebrafish toxicity in the absence of doxorubicin (TD50); conditions: without doxorubicin
Protocol: Dose-response curves were constructed using Prism (GraphPad). Raw data representing percent rescue at each dose was log-transformed, and EC50 values were calculated using nonlinear regression analysis. The median toxic dose (TD50) was defined for each compound by assessing for pericardial edema, non-specific deformities, and death in the absence of doxorubicin treatment (data not shown). Concentrations at and above the TD50 (toxic dose) were excluded from dose-response curves.

[3] = system: HL-1 cardiomyocytes; assay: Cultured HL-1 cardiomyocyte model (DOX-induced apoptosis, viability); type: cell-based, mouse; conditions: Mus musculus, HL-1; doxorubicin 5 μM, viability after 18 hours, CellTiter-Glo; read-out: EC50 in HL-1 Cells
Protocol: The cardiomyocyte cell line HL-1 derived from mouse atrial tumor was a gift from W. Claycomb. Cells were cultured as previously published (Claycomb et al., 1998) and treated with doxorubicin 5 μM with or without the tested compounds at a concentration up to 50 μM. Viability was assessed after 18 hours of using a CellTiter-Glo Luminescent assay from Promega. Each dose-response experiment was repeated three times.
Compounds were tested in HL-1 cultured cardiomyocytes to assess for efficacy in preventing DOX-induced apoptosis. Cell viability was assessed as described in the materials and methods section.

[4] = system: rad9a; assay: Zebrafish proteomics; type: in vivo; conditions: zebrafish embryos, visnagin 20 μM
[5] = system: cyp1c1; assay: Zebrafish proteomics; type: in vivo; conditions: zebrafish embryos, visnagin 20 μM
Protocol: (§1) The proteomics analysis was carried out as described in the material and methods section. All protein abundance values are normalized to DMSO-treated control zebrafish. * p<0.05 compared to the DMSO control using the Benjamini-Hochberg method of correcting for multiple hypotheses.

[6] = system: cyp1b1; assay: Zebrafish proteomics; type: in vivo; conditions: zebrafish embryos, visnagin 20 μM
Protocol: as §1

[7] = system: CYP1A; assay: Zebrafish proteomics; type: in vivo; conditions: zebrafish embryos, visnagin 20 μM
Protocol: as §1

[8] = system: LOC100332237; assay: Zebrafish proteomics; type: in vivo; conditions: zebrafish embryos, visnagin 20 μM
[9] = system: slc2a1a; assay: Zebrafish proteomics; type: in vivo; conditions: zebrafish embryos, visnagin 20 μM
[10] = target: CYP2C19 (Homo sapiens (Human), UniProt P33261); assay: CYP inhibition assay, human liver microsomes; type: biochemical; conditions: omeprazole 0.5 μM, reference oxybutynin
Protocol: (§2) CYP inhibition experiments were performed by Cerep Panlabs (Eurofins) using human liver microsomes and the following substrates: phenacetin 10 μM (CYP1A), buproprion 100 μM (CYP2B6), paclitaxel 10 μM (CYP2C8), diclofenac 10 μM (CYP 2C9), omeprazole 0.5 μM (CYP2C19), dextromethorphan 5 μM (CYP2D6), and testosterone 50 μM (CYP3A). Metabolites of each substrate were measured using LC-MS/MS. Mean percent inhibition was calculated using the following reference inhibitors: furafylline (CYP1A), clopidogrel (CYP2B6), montelukast (CYP2C8), sulfaphenazole (CYP2C9), oxybutynin (CYP2C19), quinidine (CYP2D6), and ketoconazole (CYP3A). […] All concentrations were tested in duplicate to obtain the final results.
(§3) The ability of the tested compounds to inhibit a panel of CYP enzymes in vitro was assessed using a series of human liver microsome assays.

[11] = target: CYP2C8 (Homo sapiens (Human), UniProt P10632); assay: CYP inhibition assay, human liver microsomes; type: biochemical; conditions: paclitaxel 10 μM, reference montelukast
Protocol: as §2, §3

[12] = target: CYP1A (Homo sapiens (Human), UniProt P05177); assay: CYP inhibition assay, human liver microsomes; type: biochemical
Protocol: as §2, §3

[13] = target: CYP2C9 (Homo sapiens (Human), UniProt P11712); assay: CYP inhibition assay, human liver microsomes; type: biochemical; conditions: diclofenac 10 μM, reference sulfaphenazole
Protocol: as §2, §3

[14] = target: CYP3A (Homo sapiens, UniProt P08684); assay: CYP inhibition assay, human liver microsomes; type: biochemical; conditions: testosterone 50 μM, reference ketoconazole
Protocol: as §2, §3

[15] = target: CYP2D6 (Homo sapiens (Human), UniProt P10635); assay: CYP inhibition assay, human liver microsomes; type: biochemical; conditions: dextromethorphan 5 μM, reference quinidine
Protocol: as §2, §3

[16] = system: gstp2; assay: Zebrafish proteomics; type: in vivo; conditions: zebrafish embryos, visnagin 20 μM
[17] = system: sqstm1; assay: Zebrafish proteomics; type: in vivo; conditions: zebrafish embryos, visnagin 20 μM
[18] = system: dhrs13l1; assay: Zebrafish proteomics; type: in vivo; conditions: zebrafish embryos, visnagin 20 μM
[19] = system: thbs1b; assay: Zebrafish proteomics; type: in vivo; conditions: zebrafish embryos, visnagin 20 μM
[20] = Danio rerio, rescue from DOX cardiomyopathy phenotype, read-out: EC50 in the zebrafish DOX model
[21] = Danio rerio, rescue from DOX (100 μM) cardiomyopathy phenotype, 40 hours post-treatment, read-out: EC50 is zebrafish

CYP2C9, sequence (P11712 whole entry): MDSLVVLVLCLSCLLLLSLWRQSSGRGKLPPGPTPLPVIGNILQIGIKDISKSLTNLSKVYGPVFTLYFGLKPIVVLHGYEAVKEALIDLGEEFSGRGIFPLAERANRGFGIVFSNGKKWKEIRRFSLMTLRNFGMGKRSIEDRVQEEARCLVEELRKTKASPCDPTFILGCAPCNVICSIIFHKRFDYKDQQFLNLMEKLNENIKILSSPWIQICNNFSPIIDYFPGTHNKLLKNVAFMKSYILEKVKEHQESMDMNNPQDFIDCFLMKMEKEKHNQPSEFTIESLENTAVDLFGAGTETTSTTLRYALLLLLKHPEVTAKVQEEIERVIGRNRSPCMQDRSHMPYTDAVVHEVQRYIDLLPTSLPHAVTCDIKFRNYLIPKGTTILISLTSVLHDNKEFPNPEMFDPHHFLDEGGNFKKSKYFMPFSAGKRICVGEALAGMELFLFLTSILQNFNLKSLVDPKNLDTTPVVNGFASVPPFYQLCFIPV
CYP1A (Homo sapiens (Human), UniProt P05177), sequence (P05177 whole entry): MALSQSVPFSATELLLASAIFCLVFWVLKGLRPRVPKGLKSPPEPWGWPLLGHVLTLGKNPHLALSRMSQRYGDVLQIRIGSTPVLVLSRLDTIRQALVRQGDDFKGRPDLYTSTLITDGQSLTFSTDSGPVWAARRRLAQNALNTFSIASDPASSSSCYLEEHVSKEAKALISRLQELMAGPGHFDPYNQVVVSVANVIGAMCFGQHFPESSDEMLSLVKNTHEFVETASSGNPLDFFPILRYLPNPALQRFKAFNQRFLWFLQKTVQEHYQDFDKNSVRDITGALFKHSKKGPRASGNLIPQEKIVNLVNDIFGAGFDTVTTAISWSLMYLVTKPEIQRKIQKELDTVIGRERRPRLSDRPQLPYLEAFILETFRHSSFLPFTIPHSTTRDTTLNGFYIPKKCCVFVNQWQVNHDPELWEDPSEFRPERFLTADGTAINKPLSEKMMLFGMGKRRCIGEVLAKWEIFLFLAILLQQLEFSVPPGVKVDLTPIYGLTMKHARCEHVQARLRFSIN
CYP3A, sequence (P08684 2-503 limits assumed): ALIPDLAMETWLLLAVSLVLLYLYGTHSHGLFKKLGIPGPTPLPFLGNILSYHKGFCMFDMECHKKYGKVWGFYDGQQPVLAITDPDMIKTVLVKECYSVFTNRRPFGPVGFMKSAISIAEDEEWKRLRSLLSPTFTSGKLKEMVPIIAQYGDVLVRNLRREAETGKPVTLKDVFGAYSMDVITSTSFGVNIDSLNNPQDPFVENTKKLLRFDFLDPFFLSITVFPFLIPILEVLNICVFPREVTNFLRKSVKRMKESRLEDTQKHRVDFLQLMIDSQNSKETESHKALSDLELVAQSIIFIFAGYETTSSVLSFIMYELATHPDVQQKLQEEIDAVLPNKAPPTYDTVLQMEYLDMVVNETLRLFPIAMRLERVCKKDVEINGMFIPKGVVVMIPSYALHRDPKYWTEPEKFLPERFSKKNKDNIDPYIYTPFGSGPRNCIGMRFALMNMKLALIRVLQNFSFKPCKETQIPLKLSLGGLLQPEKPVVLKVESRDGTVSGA
CYP2C8, sequence (P10632 whole entry): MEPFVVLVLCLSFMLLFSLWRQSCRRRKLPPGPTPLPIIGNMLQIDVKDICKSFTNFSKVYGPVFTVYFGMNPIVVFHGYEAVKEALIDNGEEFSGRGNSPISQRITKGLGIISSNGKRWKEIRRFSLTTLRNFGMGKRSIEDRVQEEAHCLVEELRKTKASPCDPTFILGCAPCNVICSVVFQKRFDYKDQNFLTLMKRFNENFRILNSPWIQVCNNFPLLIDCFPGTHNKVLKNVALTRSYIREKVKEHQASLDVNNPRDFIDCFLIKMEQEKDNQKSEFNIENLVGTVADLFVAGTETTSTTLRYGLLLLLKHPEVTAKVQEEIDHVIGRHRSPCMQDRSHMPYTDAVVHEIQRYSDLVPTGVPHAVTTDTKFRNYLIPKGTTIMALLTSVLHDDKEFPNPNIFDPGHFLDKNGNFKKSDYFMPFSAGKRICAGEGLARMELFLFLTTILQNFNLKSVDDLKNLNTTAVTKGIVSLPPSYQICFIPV
CYP2D6, sequence (P10635 whole entry): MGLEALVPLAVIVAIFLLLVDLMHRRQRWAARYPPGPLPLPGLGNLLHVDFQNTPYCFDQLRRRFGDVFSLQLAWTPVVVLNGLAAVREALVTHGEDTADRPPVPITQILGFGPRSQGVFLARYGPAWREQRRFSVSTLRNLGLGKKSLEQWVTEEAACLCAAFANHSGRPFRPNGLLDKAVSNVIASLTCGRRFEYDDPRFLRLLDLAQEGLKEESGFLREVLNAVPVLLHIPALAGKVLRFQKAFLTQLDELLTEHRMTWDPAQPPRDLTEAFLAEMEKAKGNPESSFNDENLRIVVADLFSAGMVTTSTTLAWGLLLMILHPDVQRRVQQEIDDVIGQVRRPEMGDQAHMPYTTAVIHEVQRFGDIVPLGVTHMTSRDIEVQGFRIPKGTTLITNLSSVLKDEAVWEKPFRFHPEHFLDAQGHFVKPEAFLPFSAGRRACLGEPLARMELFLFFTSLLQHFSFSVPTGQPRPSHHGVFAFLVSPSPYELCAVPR
CYP2C19, sequence (P33261 whole entry): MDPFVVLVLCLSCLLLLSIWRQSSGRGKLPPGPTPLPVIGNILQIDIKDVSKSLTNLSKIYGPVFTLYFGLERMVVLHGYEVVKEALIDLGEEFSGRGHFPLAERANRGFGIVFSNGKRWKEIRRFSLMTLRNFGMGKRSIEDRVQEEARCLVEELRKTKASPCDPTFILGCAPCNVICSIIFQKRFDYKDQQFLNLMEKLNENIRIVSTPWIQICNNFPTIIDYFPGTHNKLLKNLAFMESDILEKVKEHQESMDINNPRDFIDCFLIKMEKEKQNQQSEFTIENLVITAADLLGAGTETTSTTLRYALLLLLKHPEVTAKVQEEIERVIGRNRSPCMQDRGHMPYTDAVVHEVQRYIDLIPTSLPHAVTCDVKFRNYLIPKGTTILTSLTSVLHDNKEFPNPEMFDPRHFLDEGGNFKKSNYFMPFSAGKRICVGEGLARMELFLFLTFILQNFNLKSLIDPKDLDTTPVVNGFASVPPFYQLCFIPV

## c1cc2ccc3cccc4ccc(c1)c2c34 [pyrene]
[1]; [20]
  EC50: 3700 nM
[1]
  rescue from the doxorubicin cardiomyopathy phenotype: significant rescue
  protection against doxorubicin cardiotoxicity in the zebrafish model: prevented DOX cardiomyopathy

## CC(C)(C)OC(=O)NCCOc1c2ccoc2cc2oc(=S)ccc12 [Example 7, tert-butyl (2-((7-thioxo-7H-furo[3,2-g]chromen-4-yl)oxy)ethyl)carbamate]
[1]; [21]
  EC50: 258 nM

## COC(=O)c1csc(C(=O)c2c[nH]c3ccccc23)n1 [ITE, methyl 2-(1H-indole-3-carbonyl)-1,3-thiazole-4-carboxylate]
[2]
  toxicity to zebrafish embryos without doxorubicin: not toxic

## CC(C)(C)OC(=O)NCCOc1c2ccoc2cc2oc(=O)ccc12 [Example 3]
[1]; [21]
  EC50: 3 nM
[3]
  EC50: > 50000 nM

## CC(C)(C)OC(=O)N1CC(COc2c3ccoc3cc3oc(=O)ccc23)C1 [Example 4, tert-butyl 3-(((7-oxo-7H-furo[3,2-g]chromen-4-yl)oxy)methyl)azetidine-1-carboxylate]
[1]; [21]
  EC50: 10 nM
[3]
  EC50: > 50000 nM

## COc1cc(C=Cc2ccc(OC)cc2OC)cc(OC)c1 [2,4,3′,5′-tetramethoxystilbene]
[1]; [20]
  EC50: 8600 nM
[1]
  rescue from the doxorubicin cardiomyopathy phenotype: significant rescue
  protection against doxorubicin cardiotoxicity in the zebrafish model: prevented DOX cardiomyopathy

## CCSC(=O)NCCOc1c2ccoc2cc2oc(=O)ccc12 [Example 5, S-ethyl (2-((7-oxo-7H-furo[3,2-g]chromen-4-yl)oxy)ethyl)carbamothioate]
[1]; [21]
  EC50: 3 nM

## O=c1cc(-c2ccccc2)oc2c1ccc1ccccc12 [α-naphthoflavone]
[1]; rescue from DOX (100 μM) cardiomyopathy phenotype, 40 hours post-treatment, read-out: EC50 is zebrafish
  EC50: 293 nM
[1]
  rescue from the doxorubicin cardiomyopathy phenotype: significant rescue
  protection against doxorubicin cardiotoxicity in the zebrafish model: prevented DOX cardiomyopathy

## O=c1ccc2c(OCC3CO3)c3ccoc3cc2o1 (stereo not drawn) [Example 1, 4-(oxiran-2-ylmethoxy)-7H-furo[3,2-g]chromen-7-one]
[1]; [21]
  EC50: 52 nM
[3]
  EC50: > 50000 nM

## O=C(NCCCOc1c2ccoc2cc2oc(=O)ccc12)Oc1ccccc1 [Example 6]
[1]; [21]
  EC50: 33 nM
[3]
  EC50: > 50000 nM

## Cc1ccccc1N=Nc1ccc(NC(=O)c2ccnn2C)c(C)c1 [CH-233191]
[1]
  rescue from the doxorubicin cardiomyopathy phenotype: significant rescue
  protection against doxorubicin cardiotoxicity in the zebrafish model: prevented DOX cardiomyopathy

## 4-ethoxy-7-methyl-5H-furo[3,2-g][1]-benzopyran-5-one [visnagin]
[4]; 40 hours post-treatment
  Protein Abundance (Normalized to DMSO) rad9a: 1.15
[4]
  DOX/DOX+ visnagin protein abundance ratio rad9a: 2.50
[5]; 40 hours post-treatment
  Protein Abundance (Normalized to DMSO) cyp1c1: 0.80
[5]
  DOX/DOX+ visnagin protein abundance ratio cyp1c1: 7.57
[6]; 40 hours post-treatment
  Protein Abundance (Normalized to DMSO) cyp1b1: 0.94
[6]
  DOX/DOX+ visnagin protein abundance ratio cyp1b1: 5.31
[7]; 40 hours post-treatment
  Protein Abundance (Normalized to DMSO) cyp1a: 0.84
[7]
  DOX/DOX+ visnagin protein abundance ratio cyp1a: 7.03
[8]; 40 hours post-treatment
  Protein Abundance (Normalized to DMSO) LOC100332237: 0.96
[8]
  DOX/DOX+ visnagin protein abundance ratio LOC100332237: 2.34
[9]; 40 hours post-treatment
  Protein Abundance (Normalized to DMSO) slc2a1a: 0.83
[9]
  DOX/DOX+ visnagin protein abundance ratio slc2a1a: 2.23
[10]
  Mean % Inhibition CYP2C19: 1.2%
[11]
  Mean % Inhibition CYP2C8: 8.1%
[12]
  IC50: 240 nM
[13]
  Mean % Inhibition CYP2C9: 1.7%
[14]
  Mean % Inhibition CYP3A: 4.2%
[15]
  Mean % Inhibition CYP2D6: 9.9%
[16]; 40 hours post-treatment
  Protein Abundance (Normalized to DMSO) gstp2: 0.89
[16]
  DOX/DOX+ visnagin protein abundance ratio gstp2: 2.14
[17]; 40 hours post-treatment
  Protein Abundance (Normalized to DMSO) sqstm1: 0.98
[17]
  DOX/DOX+ visnagin protein abundance ratio sqstm1: 2.43
[18]; 40 hours post-treatment
  Protein Abundance (Normalized to DMSO) dhrs13l1: 0.89
[18]
  DOX/DOX+ visnagin protein abundance ratio dhrs13l1: 2.79
[19]; 40 hours post-treatment
  Protein Abundance (Normalized to DMSO) thbs1b: 0.89
[19]
  DOX/DOX+ visnagin protein abundance ratio thbs1b: 2.39
